The source made the active and inactive calls. The rule behind the calls is not given here.
Test system: rodent carcinogenicity bioassays, tumor incidence
Test: CCRIS carcinogenicity studies
Summary of the method: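 Archive of carcinogenicity, mutagenicity, tumor promotion and tumor inhibition results drawn from journals, NCI reports and other sources, expert-reviewed; covers 1985-2011 and is no longer updated.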

Measured: carcinogen call

Clc1cc2c(cc1Cl)Oc1cc(Cl)c(Cl)cc1O2
inactive: Species: Rat, Strain/Sex: Harlan Sprague-Dawley/Female (50 dosed animals), Route: Gavage, Dose: 0, 100 ng/kg (Test material solvent: corn oil: acetone (99:1)) inactive; negative
active: Species: MOUSE, Strain/Sex: B6C3/FEMALE, Route: GAVAGE, Dose: 0, 2.5, 5 UG/KG IN CORN OIL 1/WK FOR 52 WK (STUDY DURATION: 110 WK), Dose: 0, 2.5, 5 UG/KG IN CORN OIL 1/WK FOR 52 WK (STUDY DURATION: 110 WK), Tumor Site: Type of Lesion: LIVER: HEPATOCELLULAR ADENOMA, HEPTOCELLULAR CARCINOMA active; positive | Species: MOUSE, Strain/Sex: B6C3/FEMALE, Route: INTRAPERITONEAL, Dose: 0, 1, 30, 60, UG/KG 1/WK FOR 5 WK BEGINNING AT 10 D OF AGE (STUDY DURATION: 78 WK), Dose: 0, 1, 30, 60, UG/KG 1/WK FOR 5 WK BEGINNING AT 10 D OF AGE (STUDY DURATION: 78 WK), Tumor Site: Type of Lesion: LIVER: HEPATOCELLULAR ADENOMA, THYMUS: LYMPHOMA active; positive | Species: MOUSE, Strain/Sex: B6C3/MALE, Route: GAVAGE, Dose: 0, 2.5, 5 UG/KG IN CORN OIL 1/WK FOR 52 WK (STUDY DURATION: 110 WK), Dose: 0, 2.5, 5 UG/KG IN CORN OIL 1/WK FOR 52 WK (STUDY DURATION: 110 WK), Tumor Site: Type of Lesion: LIVER: HEPATOCELLULAR CARCINOMA active; positive | Species: MOUSE, Strain/Sex: B6C3/MALE, Route: INTRAPERITONEAL, Dose: 0, 1, 30, 60, UG/KG 1/WK FOR 5 WK BEGINNING AT 10 D OF AGE (STUDY DURATION: 78 WK), Dose: 0, 1, 30, 60, UG/KG 1/WK FOR 5 WK BEGINNING AT 10 D OF AGE (STUDY DURATION: 78 WK), Tumor Site: Type of Lesion: LIVER: HEPATOCELLULAR ADENOMA, HEPTOCELLULAR CARCINOMA, THYMUS: LYMPHOMA active; positive | Species: MOUSE, Strain/Sex: B6C3F1/FEMALE, Route: GAVAGE, Dose: 0, 0.04, 0.2, 2.0 UG/KG SUSPENDED IN 9:1 CORN OIL-ACETONE, Dose: 0, 0.04, 0.2, 2.0 UG/KG SUSPENDED IN 9:1 CORN OIL-ACETONE, Tumor Site: Type of Lesion: LIVER: HEPATOCELLULAR CARCINOMA, THYROID GLAND: FOLLICULAR CELL ADENOMA active; positive | Species: MOUSE, Strain/Sex: B6C3F1/MALE, Route: GAVAGE, Dose: 0, 0.01, 0.05, 0.5 UG/KG SUSPENDED IN 9:1 CORN OIL-ACETONE, Dose: 0, 0.01, 0.05, 0.5 UG/KG SUSPENDED IN 9:1 CORN OIL-ACETONE, Tumor Site: Type of Lesion: LIVER: HEPATOCELLULAR CARCINOMA active; positive | Species: MOUSE, Strain/Sex: SWISS/FEMALE, Route: DERMAL, Dose: 0.005 UG IN ACETONE SUSPENSION 3/WK FOR 99 OR 104 WK (STUDY DURATION: 99 OR 104 WK), Tumor Site: Type of Lesion: INTEGUMENTARY SYSTEM (SUBCUTANEOUS TISSUE): FIBROSARCOMA active; positive | Species: RAT, Strain/Sex: OSBORNE-MENDEL/FEMALE, Route: GAVAGE, Dose: 0, 0.01, 0.05, 0.5 UG/KG SUSPENDED IN 9:1 CORN OIL-ACETONE, Dose: 0, 0.01, 0.05, 0.5 UG/KG SUSPENDED IN 9:1 CORN OIL-ACETONE, Tumor Site: Type of Lesion: LIVER: NEOPLASTIC NODULE active; positive | Species: RAT, Strain/Sex: OSBORNE-MENDEL/MALE, Route: GAVAGE, Dose: 0, 0.01, 0.05, 0.5 UG/KG SUSPENDED IN 9:1 CORN OIL-ACETONE, Dose: 0, 0.01, 0.05, 0.5 UG/KG SUSPENDED IN 9:1 CORN OIL-ACETONE, Tumor Site: Type of Lesion: THYROID GLAND: FOLLICULAR CELL ADENOMA active; positive | Species: RAT, Strain/Sex: SPRAGUE-DAWLEY/FEMALE, Route: ORAL, Dose: 0, 3, 10, 22, 46, 100 NG/KG/D (STUDY DURATION: 2 YRS), Dose: 0, 3, 10, 22, 46, 100 NG/KG/D (STUDY DURATION: 2 YRS), Tumor Site: Type of Lesion: ORAL MUCOSA: SQUAMOUS CELL CARCINOMA active; positive; highest dose only | Species: Rat, Strain/Sex: Harlan Sprague-Dawley/Female, Route: Gavage, Dose: 0, 3, 10, 22, 46, 100 ng/kg (Test material solvent: corn oil: acetone (99:1)), Dose: 0, 3, 10, 22, 46, 100 ng/kg (Test material solvent: corn oil: acetone (99:1)), Tumor Site: Type of Lesion: Liver: Hepatocellular adenoma (0/53, 0/54, 0/53, 1/53, 13/53, 2/50), Cholangiocarcinoma (0/53, 0/54, 0/53, 1/53, 4/53, 2 active; positive; findings in pancreas and in liver for hepatocholangioma and cholangiom | Species: Rat, Strain/Sex: Spartan Sprague Dawley/Female (50/Experimental Group; 86 Controls), Route: Oral, Dose: 0, 1, 10, 100 ng/kg in food, 7 days a wk for 2 yr, Dose: 0, 1, 10, 100 ng/kg in food, 7 days a wk for 2 yr active; positive
equivocal: Species: MOUSE, Strain/Sex: SWISS/MALE, Route: DERMAL, Dose: 0.001 UG IN ACETONE SUSPENSION 3/WK FOR 99 OR 104 WK (STUDY DURATION: 99 OR 104 WK), Tumor Site: Type of Lesion: INTEGUMENTARY SYSTEM (SUBCUTANEOUS TISSUE): FIBROSARCOMA

CCNN
active: Species: MOUSE, Strain/Sex: SWISS/FEMALE, Route: ORAL, Dose: 0, 0.0125% IN DRINKING WATER FOR LIFE FOR AN AVERAGE DAILY DOSE OF 0, 0.92 MG (STUDY DURATION: 130 WK), Dose: 0, 0.0125% IN DRINKING WATER FOR LIFE FOR AN AVERAGE DAILY DOSE OF 0, 0.92 MG (STUDY DURATION: 130 WK), Tumor Site: Type of Lesion: LUNG: ADENOMA OR ADENOCARCINOMA, BLOOD VESSEL: ANGIOSARCOMA OR ANGIOMA active; positive | Species: MOUSE, Strain/Sex: SWISS/MALE, Route: ORAL, Dose: 0, 0.0125% IN DRINKING WATER FOR LIFE FOR AN AVERAGE DAILY DOSE OF 0, 1.52 MG (STUDY DURATION: 130 WK), Dose: 0, 0.0125% IN DRINKING WATER FOR LIFE FOR AN AVERAGE DAILY DOSE OF 0, 1.52 MG (STUDY DURATION: 130 WK), Tumor Site: Type of Lesion: LUNG: ADENOMA OR ADENOCARCINOMA, BLOOD VESSEL: ANGIOSARCOMA OR ANGIOMA active; positive

O=[N+]([O-])c1cc2ccc3cccc4ccc(c1)c2c34
active: Species: RAT, Strain/Sex: STRAIN-CD/FEMALE, Route: INTRAPERITONEAL, Dose: 0, 67 UMOL/KG BW IN DMSO 3/WK FOR 4 WK (STUDY DURATION: 61 WK), Tumor Site: Type of Lesion: HEMATOPOIETIC SYSTEM: LEUKEMIA, LYMPHOMA active; positive | Species: RAT, Strain/Sex: STRAIN-CD/FEMALE, Route: INTRAPERITONEAL, Dose: 0, 67 UMOL/KG/BW IN 25 UMOL/ML DMSO 3/WK FOR 4 WK (TOTAL DOSE: 0; 119 UMOL) ADMINISTERED TO WEANLING RATS (STUDY DURATIO, Dose: 0, 67 UMOL/KG/BW IN 25 UMOL/ML DMSO 3/WK FOR 4 WK (TOTAL DOSE: 0; 119 UMOL) ADMINISTERED TO WEANLING RATS (STUDY DURATIO, Tumor Site: Type of Lesion: HEMATOPOIETIC SYSTEM: LEUKEMIA OR LYMPHOMA active; positive
inactive: Species: RAT, Strain/Sex: STRAIN-CD/FEMALE, Route: INJECTION, Dose: 0, 0.1 ML IN 20.3 UMOL/ML DMSO INJECTED INTO MAMMARY TISSUE OF THE 3 LEFT THORACIC NIPPLES FOLLOWED THE NEXT D BY SIMILA inactive; negative | Species: RAT, Strain/Sex: STRAIN-CD/FEMALE, Route: INJECTION, Dose: 0, 0.1 ML OF A 20.3 UMOL/ML SOLUTION IN DMSO INJECTED INTO MAMMARY TISSUE UNDERLYING 3 LEFT THORACIC NIPPLES THE FOLLOWI inactive; negative

ClC1=C(Cl)C2(Cl)C3C(Cl)C(Cl)CC3C1(Cl)C2(Cl)Cl (stereo not given)
inactive: Species: MOUSE, Strain/Sex: ICR/FEMALE, Route: ORAL, Dose: 0, 1, 5, 12.5 PPM IN DIET FOR 104 WK (STUDY DURATION: 104 WK), Dose: 0, 1, 5, 12.5 PPM IN DIET FOR 104 WK (STUDY DURATION: 104 WK) inactive; negative
active: Species: MOUSE, Strain/Sex: C57B1/MALE, Route: ORAL, Dose: 0, 50 PPM IN DIET FOR 24 MO (STUDY DURATION: 24 MO), Tumor Site: Type of Lesion: LIVER: ADENOMA OR CARCINOMA active; positive | Species: MOUSE, Strain/Sex: ICR/MALE, Route: ORAL, Dose: 0, 1, 5, 12.5 PPM IN DIET FOR 104 WK (STUDY DURATION: 104 WK), Dose: 0, 1, 5, 12.5 PPM IN DIET FOR 104 WK (STUDY DURATION: 104 WK), Tumor Site: Type of Lesion: LIVER: ADENOMA, HEMANGIOMA active; positive | Species: RAT, Strain/Sex: F344/FEMALE, Route: ORAL, Dose: 0, 1, 5, 25 PPM IN DIET FOR 130 WK (STUDY DURATION: 130 WK), Dose: 0, 1, 5, 25 PPM IN DIET FOR 130 WK (STUDY DURATION: 130 WK), Tumor Site: Type of Lesion: MAMMARY GLAND: FIBROADENOMA active; positive | Species: RAT, Strain/Sex: F344/MALE, Route: ORAL, Dose: 0, 1, 5, 25 PPM IN DIET FOR 130 WK (STUDY DURATION: 130 WK), Dose: 0, 1, 5, 25 PPM IN DIET FOR 130 WK (STUDY DURATION: 130 WK), Tumor Site: Type of Lesion: LIVER: NODULE active; positive

Source: PubChem BioAssay AID1259411 (Chemical Carcinogenesis Research Information System (CCRIS), 2018)
